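Abbreviation: GI50, concentration required for 50% inhibition of growth. The concentration for full growth arrest is given as TGI.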
Legend:
Test in all cases: NCI tumour cell line growth inhibition, 384-well format
[1] = tested on: UACC-257 melanoma
[2] = tested on: DU-145 prostate
[3] = tested on: BT-549 breast
[4] = tested on: T-47D breast
[5] = tested on: NCI-H322M lung
[6] = tested on: HCT-15 colon
[7] = tested on: A549 NSCLC
[8] = tested on: SK-MEL-28 melanoma
[9] = tested on: IGROV1 ovarian
[10] = tested on: NCI-H460 NSCLC
[11] = tested on: UACC-62 melanoma
[12] = tested on: SK-OV-3 ovarian
[13] = tested on: OVCAR-4 ovarian
[14] = tested on: CCRF-CEM leukemia
[15] = tested on: RPMI-8226 leukemia
[16] = tested on: U251 glioblastoma
[17] = tested on: MDA-MB-435 melanoma
[18] = tested on: OVCAR-5 ovarian
[19] = tested on: OVCAR-8 ovarian
[20] = tested on: MOLT-4 leukemia
[21] = tested on: SK-MEL-5 melanoma
[22] = tested on: OVCAR-3 ovarian
[23] = tested on: ACHN renal
[24] = tested on: K-562 leukemia
[25] = tested on: MALME-3M melanoma
[26] = tested on: HL-60(TB) leukemia
[27] = tested on: NCI-H226 lung
[28] = tested on: RXF 393 renal
[29] = tested on: HOP-92 NSCLC
[30] = tested on: TK-10 renal
[31] = tested on: CAKI-1 renal
[32] = tested on: UO-31 renal
[33] = tested on: SR leukemia
[34] = tested on: SN12C renal
[35] = tested on: NCI-H23 lung
[36] = tested on: M14 melanoma
[37] = tested on: NCI/ADR-RES ovarian
[38] = tested on: A498 renal
[39] = tested on: 786-0 renal
[40] = tested on: PC-3 prostate
[41] = tested on: NCI-H522 lung
[42] = tested on: SW-620 colon
[43] = tested on: KM12 colon
[44] = tested on: SK-MEL-2 melanoma
[45] = tested on: HCC-2998 colon
[46] = tested on: HCT-116 colon
[47] = tested on: HT29 colon
[48] = tested on: HS 578T breast
[49] = tested on: MCF7 breast
[50] = tested on: COLO 205 colon
[51] = tested on: MDA-MB-468 breast
[52] = tested on: MDA-MB-231 breast
[53] = tested on: LOX IMVI melanoma
[54] = tested on: HOP-62 NSCLC
[55] = tested on: EKVX NSCLC

For CO[C@@]12[C@H](COC(N)=O)C3=C(C(=O)C(C)=C(N)C3=O)N1C[C@@H]1N[C@@H]12, the GI50 [1] was 914 nM, the TGI [1] was 2950 nM and the GI50 [2] was 44.7 nM. It also gave a TGI [2] of 208 nM, a GI50 [3] of 258 nM and a TGI [3] of 1890 nM. The GI50 [4] was 1600 nM, the TGI [4] was 11200 nM and the GI50 [5] was 401 nM. The TGI [5] was 1450 nM, the GI50 [6] was 328 nM and the TGI [6] was 2170 nM. The GI50 [7] was 92.9 nM, the TGI [7] was 1060 nM and the GI50 [8] was 1240 nM. The TGI [8] was 5210 nM, the GI50 [9] was 1030 nM and the TGI [9] was 2630 nM. The TGI [10] was 110 nM, the GI50 [11] was 100 nM and the TGI [11] was 1150 nM. It also gave a GI50 [12] of 137 nM, a TGI [12] of 770 nM and a GI50 [13] of 2270 nM. The TGI [13] was 5230 nM, the GI50 [14] was 108 nM and the TGI [14] was 257 nM. For the same molecule, the GI50 [15] was 161 nM, the TGI [15] was 675 nM and the GI50 [16] was 111 nM. It also gave a TGI [16] of 1500 nM, a GI50 [17] of 1710 nM and a TGI [17] of 8720 nM. It also gave a GI50 [18] of 1120 nM, a TGI [18] of 4350 nM and a GI50 [19] of 439 nM. For the same molecule, the TGI [19] was 4600 nM, the GI50 [20] was 16.8 nM and the TGI [20] was 31.1 nM. The GI50 [21] was 40.5 nM, the TGI [21] was 102 nM and the GI50 [22] was 1320 nM. For the same molecule, the TGI [22] was 3770 nM, the GI50 [23] was 169 nM and the TGI [23] was 844 nM. For the same molecule, the GI50 [24] was 914 nM, the TGI [24] was 2830 nM and the GI50 [25] was 576 nM. It also gave a TGI [25] of 1960 nM, a GI50 [26] of 17.8 nM and a TGI [26] of 41 nM. It also gave a GI50 [27] of 553 nM, a TGI [27] of 3250 nM and a GI50 [28] of 1600 nM. It also gave a TGI [28] of 3190 nM, a GI50 [29] of 1850 nM and a TGI [29] of 6780 nM. For the same molecule, the GI50 [30] was 1720 nM, the TGI [30] was 13100 nM and the GI50 [31] was 226 nM. For the same molecule, the TGI [31] was 1640 nM, the GI50 [32] was 1130 nM and the TGI [32] was 4710 nM. For the same molecule, the GI50 [33] was 13.5 nM, the TGI [33] was 28.1 nM and the GI50 [34] was 98.9 nM. It also gave a TGI [34] of 3160 nM, a GI50 [35] of 46 nM and a TGI [35] of 162 nM. The GI50 [36] was 97.4 nM, the TGI [36] was 1190 nM and the GI50 [37] was 5800 nM. The TGI [37] was > 43000 nM, the GI50 [38] was 179 nM and the TGI [38] was 932 nM. The GI50 [39] was 261 nM, the TGI [39] was 3690 nM and the GI50 [40] was 2340 nM. It also gave a TGI [40] of 9940 nM, a GI50 [41] of 276 nM and a TGI [41] of 1370 nM. The GI50 [42] was 145 nM, the TGI [42] was 1850 nM and the GI50 [43] was 582 nM. For the same molecule, the TGI [43] was 3600 nM, the GI50 [44] was 1250 nM and the TGI [44] was 2680 nM. For the same molecule, the GI50 [45] was 236 nM, the TGI [45] was 1380 nM and the GI50 [46] was 82.3 nM. It also gave a TGI [46] of 1360 nM, a GI50 [47] of 368 nM and a TGI [47] of 2250 nM. The GI50 [48] was 3260 nM, the TGI [48] was 7500 nM and the GI50 [49] was 94.7 nM. The TGI [49] was 2870 nM, the GI50 [50] was 250 nM and the TGI [50] was 1890 nM. The GI50 [51] was 71.8 nM, the TGI [51] was 212 nM and the GI50 [52] was 4010 nM. For the same molecule, the TGI [52] was 10700 nM, the GI50 [53] was 159 nM and the TGI [53] was 1300 nM. It also gave a GI50 [54] of 38.7 nM, a TGI [54] of 213 nM and a GI50 [55] of 4520 nM. For the same molecule, the TGI [55] was 11500 nM.

From PubChem BioAssay (NCI)
